Two molecules from patent publication US20060104903A1, “Model for evaluating the efficacy of locally applied antiproliferatives or other agents on neointimal hyperplasia, immunohistochemical and vascular cell cycle changes in balloon-injured rat carotid arteries” (priority 2004, published 2006) can be followed below.

What all share (type): in vivo
In experiment [1] the test system is balloon-injured rat carotid artery. The experiment in a line: Cell proliferation in injured rat carotid artery, PCNA immunohistochemistry. The note with it: 200 μg in pluronic gel suspension, perivascular, seven days post injury. The protocol: (§1) The delivery vehicle may comprise any suitable device. In the exemplary embodiment, the delivery vehicle comprises silastic tubing as illustrated in FIG. 1. The silastic tubing 300 is about 10 mm long with an outside diameter of about 1.5 mm. The total luminal volume, based upon emperical measurement, is about 20 μL. It is important to note that the silastic tubing 300 may comprise any suitable length. The length of the tubing is determined by the amount of artery resected. The silastic tubing may comprise a notch 302 on one end to facilitate placement thereof over the carotid artery. The silastic tubing is then autoclaved prior to surgery. The silastic tubing is filled with about 20 μL of the pluronic gel comprising a suspension, solution or combination suspension and solution of test agent. The pluronic gel formulation to be encased within the silastic tubing is dispersed into the silastic tubing utilizing a 20 μL adjustable pipette with a sterile tip. The pluronic vehicle or pluronic drug solution remains on ice until immediately before pipetting and dispensing into the silastic tubing.
(§2) The next step in the process comprises the surgical procedure. The rat is anesthetized prior to surgical intervention. The rat may be anesthetized utilizing any number of anesthetizing agents, both inhalational and/or injectable. […]

Experiment [2] has the same test system. Nature of the experiment: Neointimal hyperplasia in balloon-injured rat carotid artery, histomorphometric analysis after perivascular delivery. The protocol:
as §1, §2

The test system is the same in experiment [3]. The experiment in a line: Vascular wall cell cycle and apoptotic nuclei in injured rat carotid artery, flow cytometry (propidium iodide). The note with it: 200 μg in pluronic gel suspension, perivascular, seven days post injury. On the procedure: as §1, §2
A general note: A flow cytometer gives signals particle by particle.

Each structure is given as a SMILES string.

On to `CC[C@@]1(O)C(=O)OCc2c1cc1n(c2=O)Cc2cc3c(CN(C)C)c(O)ccc3nc2-1` [Topotecan], for which the “neointimal proliferation (PCNA labeling)” value in experiment [1] is “substantially no effect”.
Consider `CC(=O)O[C@H]1C(=O)[C@@]2(C)[C@H]([C@H](OC(=O)c3ccccc3)[C@]3(O)C[C@H](OC(=O)[C@H](O)[C@@H](NC(=O)c4ccccc4)c4ccccc4)C(C)=C1C3(C)C)[C@]1(OC(C)=O)CO[C@@H]1C[C@@H]2O` [paclitaxel], for which the “neointima formation (FIG. 3 slides)” value in experiment [2] (200 μg in pluronic gel, perivascular administration) is given as “substantial-reduction”. For the same molecule, the “neointimal formation (FIG. 2)” value in experiment [2] (perivascular application) is given as “significantly reduced”. In experiment [1], the “neointimal proliferation (PCNA labeling)” value was “significantly reduce”. Further, in experiment [3], the “percentage nuclei in the G0/G1 phases” value is listed as “increases” and the “total percentage of apoptotic cells in the injured vessel wall” value is recorded as “increase”.
